Data as given in ChEMBL document CHEMBL1149405, “Cytotoxicity of novel derivatives of the spin trap EMPO” (2006).
Calls of active or inactive are those of the source. The calls are words filed in the database; no cut-off is given here.

Tests used:
SW480 [1] = experiment: LDH release per cell after 24 h with 50 mM of compound in SW480 cell line; format: functional, Homo sapiens
SW480 [2] = experiment: Decrease in cell number against human colon carcinoma SW480 cell line at 100 mM; format: functional; set-up: scale not given: the % may be the effect or the level left
F2000 = experiment: LDH release per cell after 24 h with 50mM of compound F2000 fibroblasts; format: functional, Homo sapiens
SK-BR-3 = experiment: LDH release per cell after 24 h with 50 mM of compound in SKBr3 cell line; format: functional, Homo sapiens
SW480 [3] = experiment: Decrease in cell number against human colon carcinoma SW480 cell line at 50 mM; format: functional; set-up: scale not given: the % may be the effect or the level left
SW480 [4] = experiment: Increase in intracellular GSH levels at 10mM expressed in […] cell line; format: functional, cell-based; conditions: Homo sapiens
SW480 [5] = experiment: Decrease in intracellular GSH levels at 50 mM expressed in […] cell line; format: functional, Homo sapiens; set-up: scale not given: the % may be the effect or the level left
SW480 [6] = experiment: Increase in intracellular GSH levels at 50 mM expressed in […] cell line; format: functional, cell-based; conditions: Homo sapiens

Compound | Activity (SW480 [1]) | Activity (SW480 [2]) | Activity (F2000) | Activity (SK-BR-3) | Activity (SW480 [3]) | Activity (SW480 [4]) | Activity (SW480 [5]) | Activity (SW480 [6])
CC(C)(C)OC(=O)C1(C)CCC=[N+]1[O-] (configuration not stated) | 1280% | >90% | 670% | 720% | 10% | – | – | –
CCCOC(=O)C1(C)CCC=[N+]1[O-] (configuration not stated) | 91% | <60% | 105% | 60% | 10% | Active | 38% | –
CCCCOC(=O)C1(C)CCC=[N+]1[O-] (configuration not stated) | – | >90% | – | – | 10% | – | – | –
CCC(C)OC(=O)C1(C)CCC=[N+]1[O-] (configuration not stated) | 1404% | >90% | 1211% | 101% | 10% | – | 67% | –
CC(C)OC(=O)C1(C)CCC=[N+]1[O-] (configuration not stated) | 78% | <60% | 84% | 54% | 10% | Active | – | Active
